Assay results taken from US10208074B2, “Pyrazole compounds and method for making and using the compounds” (Rigel Pharmaceuticals, Inc., priority 2015, dated 2019).
Where a name gives a salt, the structure may show the parent alone. Read-outs that look alike come from different tables or passages of the source.

Legend:
[1] = system: IL-23 (p19/p40); assay: IL23-p19 ELISA, Dendritic, LPS (compound screening using DC cells); assay type: cell-based, Human; conditions: PBMC-derived DC cells, IFNγ primed, LPS 1 μg/ml, 18 hours, 10 pt, read-out: IL23-p19 ELISA, Dendritic, LPS, 10 pt, EC50
In short: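 IL-23 in supernatants quantified by sandwich ELISA (anti-p19 capture, biotinylated anti-p40 detection, chemiluminescent readout) after 18 h LPS (1 μg/ml) stimulation. Cells were monocyte-derived DCs (GM-CSF/IL-4, 7 d), IFNγ-primed 24 h and given compound 1 h before LPS; viability by CellTiter Glo.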

[2] = system: IL-23p19; assay: LPS induced IL23p19 in THP-1 cells (with IFNγ primed) assay; assay type: cell-based, Human; conditions: THP-1 cells, IFNγ primed, LPS 1 ug/mL, 18 hours, 10 pt, read-out: IL23-p19 ELISA, THP1-IFNy, LPS, 10 pt EC50
In short: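 Readout is secreted IL-23p19, quantified by chemiluminescent sandwich ELISA after 18 h LPS (1 ug/mL) stimulation of THP-1 cells that had been IFNγ-primed (50 ng/mL, ~18 h) and given compound 1 h beforehand at 37 °C. EC50 derived by curve fit; cytotoxicity tracked with Cell Titer Glo.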

EC50 ([1]; Homo sapiens, 18 h)	EC50 ([2]; Homo sapiens, THP-1, 18 h)	Structure (SMILES)	further results
178 nM	167 nM	COCCOCCn1cc(NC(=O)c2csc(-c3c[nH]nc3C)n2)c(-c2ccccn2)n1 [II-39, N-(1-(2-(2-methoxyethoxy)ethyl)-3-(pyridin-2-yl)-1H-pyrazol-4-yl)-2-(3-methyl-1H-pyrazol-4-yl)thiazole-4-carboxamide]	
18.8 nM	41.3 nM	Cc1n[nH]cc1-c1nc(C(=O)Nc2cn(C3COC3)nc2-c2ccccn2)cs1 [II-41, 2-(3-methyl-1H-pyrazol-4-yl)-N-(1-(oxetan-3-yl)-3-(pyridin-2-yl)-1H-pyrazol-4-yl)thiazole-4-carboxamide, formic acid salt]	
50.2 nM	27.8 nM	O=C(Nc1cn(C2CCOC2)nc1-c1ccccn1)c1csc(-c2cn[nH]c2)n1 (stereo not shown) [II-43, 2-(1H-pyrazol-4-yl)-N-(3-(pyridin-2-yl)-1-(tetrahydrofuran-3-yl)-1H-pyrazol-4-yl)thiazole-4-carboxamide formic acid salt]	
129 nM	129 nM	O=C(Nc1cn(CC2CCOCC2)nc1-c1ccccn1)c1csc(-c2cn[nH]c2)n1 [II-45, 2-(1H-pyrazol-4-yl)-N-(3-(pyridin-2-yl)-1-((tetrahydro-2H-pyran-4-yl)methyl)-1H-pyrazol-4-yl)thiazole-4-carboxamide formic acid salt]	
3210 nM	1170 nM	O=C(Nc1cn(CC2(CO)COC2)nc1-c1ccccn1)c1csc(-c2cn[nH]c2)n1 [II-47, N-(1-((3-(hydroxymethyl)oxetan-3-yl)methyl)-3-(pyridin-2-yl)-1H-pyrazol-4-yl)-2-(1H-pyrazol-4-yl)thiazole-4-carboxamide]	
		CCN(CC)CCn1cc(NC(=O)c2csc(-c3cn[nH]c3)n2)c(-c2ccccn2)n1 [II-49, N-(1-(2-(diethylamino)ethyl)-3-(pyridin-2-yl)-1H-pyrazol-4-yl)-2-(1H-pyrazol-4-yl)thiazole-4-carboxamide]	EC50 [1]: 81.2 nM; EC50 [2]: 238 nM
26600 nM	3610 nM	COc1ccc(Cn2cc(-c3nc(C(=O)Nc4cn(C5CC(OC)C5)nc4-c4ccccn4)cs3)cn2)cc1 (stereo not shown) [II-51, 2-(1-(4-methoxybenzyl)-1H-pyrazol-4-yl)-N-(1-(3-methoxycyclobutyl)-3-(pyridin-2-yl)-1H-pyrazol-4-yl)thiazole-4-carboxamide]	
189 nM	171 nM	CC(C)(C)OC(=O)N1CC(n2cc(NC(=O)c3csc(-c4cn[nH]c4)n3)c(-c3ccccn3)n2)C1 [II-54]	
43.5 nM	74.9 nM	O=C(Nc1cn(C2CNC2)nc1-c1ccccn1)c1csc(-c2cn[nH]c2)n1 [II-55, N-{1-(Azetidin-3-yl)-3-(pyridine-2-yl)-1H-pyrazol-4-yl}-2-(1H-pyrazol-4-yl)thiazole-4-carboxamide]	
85.4 nM	41.8 nM	COC1CC(n2cc(NC(=O)c3csc(-c4cn[nH]c4)n3)c(-c3ccccn3)n2)C1 (stereo not shown) [II-57, N-{1-(3-Methoxycyclobutyl)-3-(pyridine-2-yl)-1H-pyrazol-4-yl}-2-(1H-pyrazol-4-yl)thiazole-4-carboxamide]	
112 nM	130 nM	COc1ccc(-c2nn(C)cc2NC(=O)c2csc(-c3cn[nH]c3)n2)nc1 [II-58, N-(3-(5-methoxypyridin-2-yl)-1-methyl-1H-pyrazol-4-yl)-2-(1H-pyrazol-4-yl)thiazole-4-carboxamide]	
216 nM	422 nM	CC(C)n1cc(NC(=O)c2csc(-c3cn[nH]c3)n2)c(-c2ccccn2)n1 [II-59, N-(1-isopropyl-3-(pyridin-2-yl)-1H-pyrazol-4-yl)-2-(1H-pyrazol-4-yl)thiazole-4-carboxamide]	
53.3 nM	47.3 nM	O=C(Nc1cn(CCN2CCOCC2)nc1-c1ccccn1)c1csc(-c2cn[nH]c2)n1 [II-60, N-(1-(2-morpholinoethyl)-3-(pyridin-2-yl)-1H-pyrazol-4-yl)-2-(1H-pyrazol-4-yl)thiazole-4-carboxamide]	
50.4 nM	22.5 nM	CN1CCN(CCn2cc(NC(=O)c3csc(-c4cn[nH]c4)n3)c(-c3ccccn3)n2)CC1 [II-61, N-(1-(2-(4-methylpiperazin-1-yl)ethyl)-3-(pyridin-2-yl)-1H-pyrazol-4-yl)-2-(1H-pyrazol-4-yl)thiazole-4-carboxamide]	
5450 nM	20800 nM	Cn1cc(NC(=O)c2csc(-c3cn[nH]c3)n2)c(C(F)(F)F)n1 [II-63, N-(1-methyl-3-(trifluoromethyl)-1H-pyrazol-4-yl)-2-(1H-pyrazol-4-yl)thiazole-4-carboxamide trifluoroacetate salt]	
48.9 nM	37.3 nM	O=C(Nc1cn([C@H]2C[C@@H](O)C2)nc1-c1ncccc1F)c1csc(-c2cn[nH]c2)n1 [II-65, N-(3-(3-fluoropyridin-2-yl)-1-((1s,3s)-3-hydroxycyclobutyl)-1H-pyrazol-4-yl)-2-(1H-pyrazol-4-yl)thiazole-4-carboxamide]	
244 nM	106 nM	O=C(Nc1cn(CCOCC(F)(F)F)nc1-c1ccccn1)c1csc(-c2cc[nH]n2)n1 [II-66, 2-(1H-pyrazol-3-yl)-N-(3-(pyridin-2-yl)-1-(2-(2,2,2-trifluoroethoxy)ethyl)-1H-pyrazol-4-yl)thiazole-4-carboxamide]	
1020 nM	1860 nM	CCO[C@H]1C[C@@H](n2cc(NC(=O)c3csc(-c4cn[nH]c4)n3)c(C(N)=O)n2)C1 [II-70, N-(3-carbamoyl-1-((1s,3s)-3-ethoxycyclobutyl)-1H-pyrazol-4-yl)-2-(1H-pyrazol-4-yl)thiazole-4-carboxamide]	
		CCO[C@H]1C[C@@H](n2cc(NC(=O)c3csc(-c4cn[nH]c4F)n3)c(-c3ccccn3)n2)C1 [II-72, N-(1-((1s,3s)-3-ethoxycyclobutyl)-3-(pyridin-2-yl)-1H-pyrazol-4-yl)-2-(5-fluoro-1H-pyrazol-4-yl)thiazole-4-carboxamide]	EC50 [1]: 140 nM; EC50 [2]: 1140 nM
		CCO[C@H]1C[C@@H](n2cc(NC(=O)c3csc(-c4cn[nH]c4F)n3)c(-c3ccccn3)n2)C1 [II-73, N-(1-((1s,3s)-3-ethoxycyclobutyl)-3-(pyridin-2-yl)-1H-pyrazol-4-yl)-2-(5-fluoro-1H-pyrazol-4-yl)thiazole-4-carboxamide]	EC50 [1]: 343 nM; EC50 [2]: 369 nM
405 nM	401 nM	CCO[C@H]1C[C@@H](n2cc(NC(=O)c3csc(-c4cn[nH]c4)n3)c(-c3nnco3)n2)C1 [II-74, N-(1-((1s,3s)-3-ethoxycyclobutyl)-3-(1,3,4-oxadiazol-2-yl)-1H-pyrazol-4-yl)-2-(1H-pyrazol-4-yl)thiazole-4-carboxamide]	
537 nM	2490 nM	O=C(Nc1cn(C2CCOCC2)nc1-c1nnco1)c1csc(-c2cn[nH]c2)n1 [II-75, N-(3-(1,3,4-oxadiazol-2-yl)-1-(tetrahydro-2H-pyran-4-yl)-1H-pyrazol-4-yl)-2-(1H-pyrazol-4-yl)thiazole-4-carboxamide]	
47.5 nM	52.4 nM	CC(C)O[C@H]1C[C@@H](n2cc(NC(=O)c3csc(-c4cn[nH]c4)n3)c(-c3ccccn3)n2)C1 [II-76, N-(1-((1,3-cis)-3-isopropoxycyclobutyl)-3-(pyridin-2-yl)-1H-pyrazol-4-yl)-2-(1H-pyrazol-4-yl)thiazole-4-carboxamide]	
		CCO[C@H]1C[C@@H](n2cc(NC(=O)c3csc(-c4cnn(COP(=O)(O)O)c4)n3)c(-c3ccccn3)n2)C1 [II-77, (4-(4-((1-((1,3-cis)-3-ethoxycyclobutyl)-3-(pyridin-2-yl)-1H-pyrazol-4-yl)carbamoyl)thiazol-2-yl)-1H-pyrazol-1-yl)methyl phosphate bis-potassium salt]	EC50 ([1]; phosphate bis-potassium salt): 146 nM; EC50 ([2]; phosphate bis-potassium salt): 147 nM
		CCO[C@H]1C[C@@H](n2cc(NC(=O)c3csc(-c4cnn(COP(=O)(O)O)c4)n3)c(-c3ccccn3)n2)C1 [II-78, (4-(4-((1-((1,3-cis)-3-ethoxycyclobutyl)-3-(pyridin-2-yl)-1H-pyrazol-4-yl)carbamoyl)thiazol-2-yl)-1H-pyrazol-1-yl)methyl phosphate calcium salt]	EC50 ([1]; phosphate calcium salt): 79.9 nM; EC50 ([2]; phosphate calcium salt): 165 nM

Structure (SMILES)	EC50 ([1]; Homo sapiens, 18 h)	EC50 ([2]; Homo sapiens, THP-1, 18 h)	further results
CCO[C@H]1C[C@@H](n2cc(NC(=O)c3csc(-c4cnn(COCC[Si](C)(C)C)c4F)n3)c(-c3ccccn3)n2)C1 [II-71, N-(1-((1s,3s)-3-ethoxycyclobutyl)-3-(pyridin-2-yl)-1H-pyrazol-4-yl)-2-(5-fluoro-1-((2-(trimethylsilyl)ethoxy)methyl)-1H-pyrazol-4-yl)thiazole-4-carboxamide]	10400 nM	49600 nM	
